# Assay: Release studies of integrated fiber microneedles in PBS
# Type: physicochemical
# Procedure: A small molecule drug, a model protein, and plasmid DNA were loaded into individual devices and the release kinetics of each were measured. These agents were loaded into an array of 420 needles, with a total device size of 4.2 cm^2. In this experiment, the needles were 350 μm in diameter and 800 μm tall. […] Each agent was successfully loaded into the fiber-microneedle system using a loading of 100 μg for the small molecule, […] for the protein, and 1.1 μg for the DNA. […] This plateau occurred at different percent release for the different agents. The small molecule plateaued at 70% release, the protein plateaued at 35% release, and the plasmid DNA plateaued around 80% release. […]
# Data represent release from a single array of integrated fiber microneedles. Complete (100%) release was determined by TFV detected in release media after 84 days. […] 100% release was determined by DNA detected in release media after 25 days.
# Microneedle characterization: SEM imaging of electrospun fibers on the two-layer composite microneedle molds and completed microneedles was performed on a JEOL JSM7400F cold field emission scanning electron microscope. […] TFV content was determined by HPLC (Shimadzu Prominence LC20AD UV-HPLC) with a Phenomenex Luna 153 C18 column and LCSolutions software. […] The column was heated to 30° C., and TFV was detected at 259 nm. BSA content was analyzed by the Pierce MicroBCA Assay. […]
smiles,measurement,setting,value
"C[C@H](Cn1cnc2c(N)ncnc21)OCP(=O)(O)O [TFV, tenofovir]",plateau of percent release,"TFV from integrated fiber microneedles into PBS, HPLC, 100% = TFV detected in release media after 84 days, single array",70%
same,release profile,from integrated fiber microneedles (array of 420 needles) into PBS,sharp initial burst release followed by a plateau

# From patent US11517729B2, “Integrated fiber microneedle device for drug and vaccine delivery” (University of Washington, priority 2018, dated 2022)
